Assay results as given in patent US8722687B2, “Imidazo [1,2-A]pyridine derivatives as FGFR kinase inhibitors for use in therapy” (Astex Therapeutics Ltd, priority 2009, dated 2014).

Columns and labels:
[1] = molecular target: T1, FGFR3 (Homo sapiens, UniProt P22607); test: FGFR3 in vitro kinase inhibitory activity assay; assay type: biochemical; settings: read-out: FGFR3 IC50(μM) or % I
T1 construct: purchased Upstate
Experimental: (§1) FGFR3, VEGFR2 and PDGFR in vitro Kinase Inhibitory Activity Assays
(§2) Enzymes (from Upstate), prepared at 2× final concentration, were incubated with test compounds, biotinylated Flt3 substrate (biotin-VASSDNEYFYVDF) (Cell Signalling Technology Inc.) and ATP in the appropriate assay buffer (Table 1). The reaction was allowed to proceed for 3 hours (FGFR3), 1 hour (VEGFR2, PDGFR-beta) at room temperature on a plate shaker at 700 rpm before being stopped with 35 mM EDTA, pH 8 (FGFR3, VEGFR2) or 55 mM EDTA, pH 8 (PDGFR-beta). 5× detection mix/50 mM HEPES pH 7.5, 0.1% BSA, 11.34 nM Eu-anti-pY (PY20) (PerkinElmer) 74 nM SA-XL665 (Cisbio) for FGFR3, 50 mM HEPES, pH 7.5, 0.1% BSA, 11.34 nM Eu-anti-pY (PY20), 187.5 nM SA-XL665 for VEGFR2 and 50 mM HEPES, pH 7.5, 0.1% BSA, 11.34 nM Eu-anti-pY (PT66) (PerkinElmer), 375 nM SA-XL665 (Cisbio) for PDGFR-beta) was then added to each well and the plate sealed and incubated at room temperature for one hour on a plate shaker at 700 rpm. The plate was then read on a Packard Fusion plate reader or a BMG Pherastar both in TRF mode.

[2] = molecular target: T2, VEGFR2 (Homo sapiens, UniProt P35968); test: VEGFR2 in vitro kinase inhibitory activity assay; assay type: biochemical; settings: read-out: VEGFR2 IC50(μM) or % I
T2 construct: purchased Upstate
Experimental: as §1, §2
Kinase Assay buffers were:
B: 50 mM HEPES pH 7.5, 6 mM MnCl2, 1 mM DTT, 0.01% TritonX-100, 0.1 mM Sodium orthovanadate

[3] = system: parental wild-type Ba/F3 cells; test: Ba/F3 (WT) cell proliferation assay (Alamar Blue); assay type: cell-based, murine; settings: read-out: BaF3 WT prolif
Experimental: (§3) Ba/F3-TEL-FGFR3 & Ba/F3 (WT) Cell Proliferation Assays
(§4) Stably transfected Ba/F3-TEL-FGFR3 cells were plated out into black 96-well tissue culture plates with clear bottoms in RPMI medium containing 10% FBS and 0.25 mg/ml G418 at a density of 5×10^3 cells/well (200 μl per well). The parental wild-type Ba/F3 cells (DSMZ no.: ACC 300) were plated out into black 96-well tissue culture plates with clear bottoms in RPMI medium containing 10% FBS and 2 ng/ml mouse IL-3 (R&D Systems) at a density of 2.5×10^3 cells/well (200 μl per well). Plates were placed in an incubator overnight before adding the compounds the following day. Dilutions of compounds were made in DMSO starting at 10 mM and were diluted into the wells to give a final DMSO concentration of 0.1% in assay. Compounds were left on the cells for 72 hours before the plates were removed from the incubator and 20 μl of Alamar Blue™ (Biosource) was added to each well. Plates were placed in the incubator for 4-6 hours before reading plates at 535 nm (excitation)/590 nm (emission) on a Fusion plate reader (Packard). Where inhibition is high an IC50 can be determined.

[4] = molecular target: T3, Ba/F3-TEL-FGFR3 cells (Homo sapiens, UniProt P22607); test: Ba/F3-TEL-FGFR3 cell proliferation assay (Alamar Blue); assay type: cell-based, murine; settings: 72 hours; read-out: BaF3-TEL-FGFR3 prolif
T3 construct: fused on or other part: TEL (ETV6) N-terminal oligomerising part fused to the FGFR3 kinase part; P41212 (Transcription factor ETV6)
Experimental: as §3, §4

[5] = system: human prostate cancer PC3 cells; test: EB1 cellular assay (Eb1 Comet assay, microtubule disruption); assay type: cell-based; settings: PC-3, lowest active concentration: Eb1 foci absent in at least 50% of treated PC3 cells, 1 hour, read-out: Eb1 LAC
Experimental: The Eb1 Comet assay relies on the detection of the Eb1 protein at the plus end of polymerizing microtubules (Mimori-Kiyosue, 2000) using indirect immunofluorescence. Disruption of microtubule dynamics through de-polymerization or stabilization results in a de-localization of Eb1 from the growing microtubule ends and this is visualized by the disappearance of Eb1 containing cytoplasmic foci.
Briefly, human prostate cancer PC3 cells obtained from the American Type Culture Collection were grown in 96-well plates (Greiner, cat. no. 655090) in HAM's F12 medium as recommended by the provider (ATCC). The cells were treated for 1 hour at 37° C. with compounds dissolved in DMSO (0.6% final DMSO concentration). The culture medium was then removed by aspiration and the cells were fixed by adding cold methanol (−20° C.). After a 15 minutes incubation at −20° C., the cells were washed twice with DPBS (Gibco) containing 0.5% Triton X-100. Mouse Eb1 antibody (BD Transduction Laboratories, cat. no. 610534) was added to the cells (1/250 dilution in DPBS containing 1% BSA) and incubated overnight at room temperature. The antibody was subsequently removed and the cells washed twice with DPBS, 0.5% Triton X-100. Secondary goat anti-mouse antibody conjugated to Alexa 488 fluorescent dye (Molecular Probes) was added at a 1/500 dilution in DPBS, 1% BSA and incubated for 1 hour at 37° C. The cells were washed twice with DPBS, 0.5% Triton X-100 and then DPBS containing 0.5% Triton X-100 and 1/5000 Hoechst 33342 (Molecular Probes) was added. Microscopy based Eb1 foci visualization was carried out using an IN Cell Analyser 1000 (Amersham Biosciences) using a 20× objective. Compound dependent microtubule disruption was visually determined by the disappearance in Eb1 foci. The lowest active concentration (LAC) was determined as the concentration where Eb1 foci were absent in at least 50% of the treated cells. Herein the effects of test compounds are expressed as pLAC (the negative log value of the LAC-value)

[6] = molecular target: T4, Ba/F3-Flt3 cells (Homo sapiens, UniProt P36888, cells depend on it, form not given); test: Ba/F3-Flt3 assay (Alamar Blue); assay type: cell-based, murine; settings: without IL3
T4 construct: Ba/F3-flt3 − IL3 pIC50; other: without IL3
T4 sequence (P36888 1-993): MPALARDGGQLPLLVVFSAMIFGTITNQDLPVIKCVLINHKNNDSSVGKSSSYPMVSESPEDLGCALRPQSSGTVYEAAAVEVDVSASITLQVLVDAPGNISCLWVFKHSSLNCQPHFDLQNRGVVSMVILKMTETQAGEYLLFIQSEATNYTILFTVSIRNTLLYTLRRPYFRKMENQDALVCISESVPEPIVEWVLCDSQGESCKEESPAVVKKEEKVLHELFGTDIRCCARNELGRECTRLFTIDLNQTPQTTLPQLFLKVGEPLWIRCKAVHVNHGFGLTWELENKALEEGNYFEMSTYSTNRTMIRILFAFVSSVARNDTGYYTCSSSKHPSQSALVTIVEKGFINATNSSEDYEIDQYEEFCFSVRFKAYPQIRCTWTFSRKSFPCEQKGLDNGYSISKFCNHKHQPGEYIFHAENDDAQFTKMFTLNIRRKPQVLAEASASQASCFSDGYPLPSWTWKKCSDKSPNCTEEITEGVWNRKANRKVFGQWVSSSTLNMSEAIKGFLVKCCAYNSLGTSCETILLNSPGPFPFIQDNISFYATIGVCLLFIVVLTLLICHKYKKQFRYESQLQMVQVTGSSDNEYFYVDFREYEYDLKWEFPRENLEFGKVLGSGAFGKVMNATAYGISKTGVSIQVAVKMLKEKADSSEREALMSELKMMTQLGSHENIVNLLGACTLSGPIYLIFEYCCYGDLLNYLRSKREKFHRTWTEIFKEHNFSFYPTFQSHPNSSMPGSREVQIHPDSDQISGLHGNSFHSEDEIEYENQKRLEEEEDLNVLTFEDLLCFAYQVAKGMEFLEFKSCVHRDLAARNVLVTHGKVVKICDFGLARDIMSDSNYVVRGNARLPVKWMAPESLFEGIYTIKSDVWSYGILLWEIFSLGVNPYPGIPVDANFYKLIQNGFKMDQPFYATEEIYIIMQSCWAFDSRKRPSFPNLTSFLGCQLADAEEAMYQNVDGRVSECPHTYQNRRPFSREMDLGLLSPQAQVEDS
Text: (§5) Ba/F3, a murine interleukin-3 dependent pro-B cell line is increasingly popular as a model system for assessing both the potency and downstream signaling of kinase oncogenes, and the ability of small-molecule kinase inhibitors to block kinase activity. Facilitated by their growth properties. Ba/F3 cells have recently been adapted to high throughput assay formats for compound profiling. Further, several published approaches show promise in predicting resistance to small-molecule kinase inhibitors elicited by point mutations interfering with inhibitor binding (Ba/F3 cells and their use in kinase drug discovery; Markus Warmuth, Sungjoon Kim, Xiang-ju Gu, Gang Xia and Francisco Adria'n; Curr Opin Oncol 19:55-60).
(§6) Ba/F3-Flt3 cells (cultured in phenol red free RPMI-1640, 10% A FCS and 50 μg/ml Gentamycin at 37° C. and 5% 002) were plated at a density of 10000 cells in a total volume of 180 μl medium in a black TC-treated sterile 96-well plate (Corning). After 24 hours, drugs in different dilutions were added to a final volume of 200 μl and at a final DMSO concentration of 0.2% prior to incubation at 37° C., and 5% CO2.
(§7) After 24 h, to each well 40 μl Alamar Blue solution (Aldrich) was added and the cells were further incubated for 4 hours at 37° C. Fluorescence (ex. 544, em. 590 nm) was measured using a fluorescence reader (Labsystems) and IC50's were calculated.
(§8) In the condition containing IL3, 10 ng/ml of murine IL3 (PeproTech) was added during compound incubation.

[7] = system: Ba/F3-Flt3 cells; test: Ba/F3-Flt3 assay (Alamar Blue); assay type: cell-based, murine; settings: Mus musculus, 24 h; with 10 ng/ml murine IL3; read-out: Ba/F3-flt3 + IL3 pIC50 (converted)
Text: as §5, §6, §7, §8

T1 sequence (P22607 23-806): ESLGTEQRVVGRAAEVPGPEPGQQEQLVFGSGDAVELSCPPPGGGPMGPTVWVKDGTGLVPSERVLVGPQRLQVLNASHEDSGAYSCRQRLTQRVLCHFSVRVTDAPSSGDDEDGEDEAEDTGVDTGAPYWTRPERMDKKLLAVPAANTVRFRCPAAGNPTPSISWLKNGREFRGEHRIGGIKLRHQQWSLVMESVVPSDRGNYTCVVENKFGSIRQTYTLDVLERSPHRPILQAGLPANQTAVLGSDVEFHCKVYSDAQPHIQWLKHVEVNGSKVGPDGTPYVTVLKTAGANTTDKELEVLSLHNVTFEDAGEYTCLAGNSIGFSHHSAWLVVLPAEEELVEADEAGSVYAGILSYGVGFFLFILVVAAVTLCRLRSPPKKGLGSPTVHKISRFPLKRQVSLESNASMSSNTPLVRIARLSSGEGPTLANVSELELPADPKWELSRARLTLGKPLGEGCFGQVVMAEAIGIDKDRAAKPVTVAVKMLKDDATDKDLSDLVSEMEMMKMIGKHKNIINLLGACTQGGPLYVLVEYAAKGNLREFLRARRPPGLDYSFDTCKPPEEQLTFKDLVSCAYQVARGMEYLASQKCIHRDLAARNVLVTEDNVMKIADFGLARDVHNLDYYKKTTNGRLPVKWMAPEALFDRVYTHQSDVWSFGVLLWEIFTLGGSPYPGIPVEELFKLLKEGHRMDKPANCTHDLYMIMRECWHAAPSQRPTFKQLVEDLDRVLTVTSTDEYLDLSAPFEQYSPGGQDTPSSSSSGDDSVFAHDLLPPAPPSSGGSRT
T2 sequence (P35968 20-1356): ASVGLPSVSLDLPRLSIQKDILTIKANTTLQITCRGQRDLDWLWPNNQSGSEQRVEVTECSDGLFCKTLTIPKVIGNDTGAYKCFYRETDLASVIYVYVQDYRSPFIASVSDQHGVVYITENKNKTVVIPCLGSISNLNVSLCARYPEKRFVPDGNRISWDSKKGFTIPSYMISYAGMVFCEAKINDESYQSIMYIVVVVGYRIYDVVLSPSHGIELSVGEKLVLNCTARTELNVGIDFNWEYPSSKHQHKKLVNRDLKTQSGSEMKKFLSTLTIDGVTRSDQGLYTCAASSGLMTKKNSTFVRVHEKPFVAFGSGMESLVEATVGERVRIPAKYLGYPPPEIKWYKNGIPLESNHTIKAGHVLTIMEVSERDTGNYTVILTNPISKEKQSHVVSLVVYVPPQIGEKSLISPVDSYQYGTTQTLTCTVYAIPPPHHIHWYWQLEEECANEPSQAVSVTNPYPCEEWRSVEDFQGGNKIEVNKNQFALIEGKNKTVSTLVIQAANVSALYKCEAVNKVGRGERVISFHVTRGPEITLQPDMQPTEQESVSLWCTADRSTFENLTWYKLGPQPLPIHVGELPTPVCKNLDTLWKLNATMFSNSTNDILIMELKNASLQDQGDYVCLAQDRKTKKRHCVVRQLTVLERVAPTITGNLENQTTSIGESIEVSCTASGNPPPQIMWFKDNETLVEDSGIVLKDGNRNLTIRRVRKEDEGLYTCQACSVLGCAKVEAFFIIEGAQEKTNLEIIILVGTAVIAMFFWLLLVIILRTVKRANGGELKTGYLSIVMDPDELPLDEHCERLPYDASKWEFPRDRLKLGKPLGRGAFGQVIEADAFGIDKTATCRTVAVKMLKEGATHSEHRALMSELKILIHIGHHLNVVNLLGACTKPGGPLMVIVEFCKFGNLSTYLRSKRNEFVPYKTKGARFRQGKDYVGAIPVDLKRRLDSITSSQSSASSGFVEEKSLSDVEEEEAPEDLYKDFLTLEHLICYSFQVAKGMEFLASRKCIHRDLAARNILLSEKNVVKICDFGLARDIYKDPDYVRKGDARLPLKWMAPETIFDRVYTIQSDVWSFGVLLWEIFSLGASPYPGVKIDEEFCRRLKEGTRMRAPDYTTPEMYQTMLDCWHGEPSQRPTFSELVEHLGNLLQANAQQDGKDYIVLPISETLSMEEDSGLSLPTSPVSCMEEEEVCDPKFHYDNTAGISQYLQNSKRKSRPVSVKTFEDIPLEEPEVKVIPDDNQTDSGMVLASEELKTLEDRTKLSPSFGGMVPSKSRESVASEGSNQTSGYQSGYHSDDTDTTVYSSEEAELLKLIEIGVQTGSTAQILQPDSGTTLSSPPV
T3 sequence (P22607 whole entry, change not shown, the tested form may be a part): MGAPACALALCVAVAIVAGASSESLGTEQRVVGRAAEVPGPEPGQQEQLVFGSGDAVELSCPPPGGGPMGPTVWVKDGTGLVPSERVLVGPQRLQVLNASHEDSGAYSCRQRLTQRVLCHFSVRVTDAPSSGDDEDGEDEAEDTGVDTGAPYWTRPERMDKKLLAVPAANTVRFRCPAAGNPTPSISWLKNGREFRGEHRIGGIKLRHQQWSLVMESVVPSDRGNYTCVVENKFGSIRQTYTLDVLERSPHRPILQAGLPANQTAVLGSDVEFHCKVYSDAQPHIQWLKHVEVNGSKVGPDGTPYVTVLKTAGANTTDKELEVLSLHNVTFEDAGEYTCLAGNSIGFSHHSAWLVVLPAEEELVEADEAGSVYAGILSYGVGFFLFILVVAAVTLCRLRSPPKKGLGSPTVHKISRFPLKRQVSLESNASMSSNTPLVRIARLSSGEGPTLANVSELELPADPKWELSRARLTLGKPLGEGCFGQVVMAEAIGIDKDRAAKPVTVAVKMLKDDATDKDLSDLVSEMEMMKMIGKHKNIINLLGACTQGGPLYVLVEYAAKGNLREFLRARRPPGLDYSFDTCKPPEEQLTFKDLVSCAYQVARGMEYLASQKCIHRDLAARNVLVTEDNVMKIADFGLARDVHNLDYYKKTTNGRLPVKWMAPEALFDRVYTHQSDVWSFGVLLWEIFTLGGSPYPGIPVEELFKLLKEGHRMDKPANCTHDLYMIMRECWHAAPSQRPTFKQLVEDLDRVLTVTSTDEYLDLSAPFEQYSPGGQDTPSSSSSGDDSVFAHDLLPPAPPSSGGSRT

Row | SMILES | IC50 [1] | IC50 [2] | IC50 ([3]; BaF3, 72 hours, with mouse IL-3) | GI50 [4] | minimal effective concentration [5] | Ba/F3-flt3 − IL3 pIC50 [6] | IC50 [7] | inhibition at 10 µM ([3]; Mus musculus, BaF3, 72 h, % at 10.0 μM) | inhibition at 0.3 µM ([1]; 3 h, % I at 0.3 μM)
1 | CC(C)Oc1cc(NC(=O)NCC(F)(F)F)cc(-c2cnc3cc(-c4cc(N(C)C)ncn4)ccn23)c1 [Compound F-21, 1-{3-[7-(6-Dimethylamino-pyrimidin-4-yl)-imidazo[1,2-a]pyridin-3-yl]-5-isopropoxy-phenyl}-3-(2,2,2-trifluoro-ethyl)-urea] | 0.012 µM | 0.79 µM | 2300 nM | 240 nM |  |  |  |  | 
2 | Cc1nnc(-c2ccn3c(-c4cc(CN(C)C)cc(NC(=O)NCC(F)(F)F)c4)cnc3c2)o1 [Compound F-24, 1-{3-Dimethylaminomethyl-5-[7-(5-methyl-[1,3,4]oxadiazol-2-yl)-imidazo[1,2-a]pyridin-3-yl]-phenyl}-3-(2,2,2-trifluoroethyl)-urea] |  | 2.8 µM |  |  | > 10 µM | <5 | > 10000 nM |  | 
3 | CC(C)Oc1cc(NC(=O)NCC(F)(F)F)cc(-c2cnc3cc(-c4nnco4)ccn23)c1 [Compound F-22, 1-[3-Isopropoxy-5-(7-[1,3,4]oxadiazol-2-yl-imidazo[1,2-a]pyridin-3-yl)-phenyl]-3-(2,2,2-trifluoro-ethyl)-urea] | 0.041 µM | 1.1 µM |  | 1300 nM |  |  |  | 19% | 
4 | Cc1nnc(-c2ccn3c(-c4cc(NC(=O)NC(O)C(F)(F)F)cc(OC(C)C)c4)cnc3c2)o1 (stereo not drawn) [Compound F-32, 1-{3-Isopropoxy-5-[7-(5-methyl-[1,3,4]oxadiazol-2-yl)-imidazo[1,2-a]pyridin-3-yl]-phenyl}-3-(2,2,2-trifluoro-1-hydroxyethyl)-urea] |  | 1.2 µM |  |  | > 10 µM | <5 | > 10000 nM |  | 
5 | Cc1nnc(-c2ccn3c(-c4cc(NC(=O)NCC(F)(F)F)cc(NC(C)C)c4)cnc3c2)o1 [Compound F-30] | 0.17 µM | 5.8 µM |  |  | 10 µM | <5 | > 10000 nM |  | 
6 | Cc1nnc(-c2ccn3c(-c4cc(NC(=O)NCC(C)C)cc(OC(C)C)c4)cnc3c2)o1 [Compound F-14, 1-Isobutyl-3-{3-isopropoxy-5-[7-(5-methyl-[1,3,4]oxadiazol-2-yl)-imidazo[1,2-a]pyridin-3-yl]-phenyl}-urea] | 0.2 µM | 2.6 µM |  |  |  |  |  |  | 
7 | CNCc1cc(NC(=O)NCC(F)(F)F)cc(-c2cnc3cc(-c4nnc(C)o4)ccn23)c1 [Compound F-25, 1-{3-Methylaminomethyl-5-[7-(5-methyl-[1,3,4]oxadiazol-2-yl)-imidazo[1,2-a]pyridin-3-yl]-phenyl}-3-(2,2,2-trifluoroethyl)-urea] | 0.46 µM | 1.7 µM |  |  | > 10 µM | <5 | > 10000 nM |  | 
8 | O=C(NCC(F)(F)F)Nc1cc(OC2CCC2)cc(-c2cnc3cc(-c4ccnc(C(F)(F)F)n4)ccn23)c1 [Compound F-12, 1-{3-Cyclobutoxy-5-[7-(2-trifluoromethyl-pyrimidin-4-yl)-imidazo[1,2-a]pyridin-3-yl]-phenyl}-3-(2,2,2-trifluoro-ethyl)-urea] |  | 2.2 µM |  |  | > 10 µM | <5 | > 10000 nM |  | 60%
